# In US20220257552A1, “METHODS OF PRESCREENING AND TREATING BREAST CANCERS WITH SELECTIVE ANDROGEN RECEPTOR MODULATORS” (priority 2021, published 2022):
# Values joined by “and” are separate entries in the source; they are usually repeats but may differ in a detail not shown here. Equal entries are not always repeated.
# Columns and labels:
# [1] = system: ER-positive metastatic breast cancer; assay: Phase 2 trial G200801, 9 mg daily, ER-positive metastatic breast cancer; assay type: in vivo, human
# Source text: The goal of this study was to determine the importance of the AR status as a therapeutic target in women with ER-positive metastatic breast cancer (MBC) that had previously responded to hormone therapy. The treatment was continued until disease progression (PD).
# CBR will be correlated with AR status of metastatic tumor biopsy.
# Female subjects with ER-positive metastatic breast cancer who have previously been treated with up to 3 prior hormonal therapies for the treatment of breast cancer. Subjects must have been treated with and responded to previous adjuvant therapy for ≥3 years or hormonal therapy for metastatic disease for ≥6 months prior to progression. Details of subject selection criteria are presented below:
# The primary efficacy analysis was the clinical benefit in subjects with AR-positive breast cancer at 6 months as measured by a modified Response Evaluation Criteria in Solid Tumors (RECIST 1.1) classification. Key secondary endpoints of clinical benefit in all subjects and AR-negative subjects, as well as objective response rate, progression free survival, time to progression, duration of response, incidence of SREs, and time to first SRE in subsets based on AR status (i.e., all subjects, AR-positive subjects, and AR-negative subjects) was also assessed. Effects on CA 27-29, PSA, bone turnover markers, QOL, and libido were assessed as tertiary endpoints.
# Clinical benefit in a subject is defined as a complete response [CR], a partial response [PR] or stable disease [SD] as measured by modified RECIST 1.1, which is described in detail below. (Eisenhauer E A et al. New response evaluation criteria in solid tumors: revised RECIST guideline (version 1.1). European Journal of Cancer 45:228-247, 2009).
# For subjects with non-measurable (non-target) disease only at baseline, SD was defined as those with non-CR/non-PD combined response. The primary endpoint of the study was to assess the proportion of subjects with clinical benefit (PCB) at 6 months (CR+PR+SD) in subjects with AR-positive breast cancer.
# [2] = system: metastatic or locally advanced ER+/AR+ breast cancer; assay: Phase 2 trial G200802, 9 mg or 18 mg daily, ER+/AR+ breast cancer; assay type: in vivo, human; details: for ORR / Best overall objective tumor response, CR (patients) / Best overall objective tumor response, PR (patients): post-hoc; for Best overall objective tumor response, CR (patients) / Best overall objective tumor response, PR (patients): all evaluable patients
# Description: Each dose arm was treated independently, and each assessed for efficacy using Simon's two-stage (optimal) design (Simon R. Optimal two-stage designs for Phase 2 clinical trials. Controlled Clinical Trials 1989; 10: 1-10). Subjects were randomized in a 1:1 fashion to one of the two dose arms.
# Randomization was stratified by subjects presenting with bone only metastases and all other subjects, and further by setting of immediately preceding therapy (adjuvant setting or metastatic setting) in order to balance the proportion of subjects with these presenting features in each dose arm.
# Thirty-six to eighty-eight (36-88) subjects with centrally confirmed AR+ who received at least one dose of study drug (evaluable subjects) were needed for primary efficacy analysis purposes and were a subset of the full analysis set (FAS). Fifty patients in the 9 mg cohort and 52 patients in the 18 mg cohort met these criteria. […] Other statistical parameters that were part of the sample size calculation are α=0.025 (one-sided) and power=90%. The first stage in each study arm was assessed among the first 18 evaluable subjects. Greater than 3/18 subjects achieved CB (defined as CR, PR, or SD) at week 24, and both arms proceeded to the second stage of recruitment up to a total of 44 evaluable subjects per arm. Otherwise, the arm would have been discontinued for lack of efficacy. Statistical significance, i.e., rejection of the null hypothesis of an unacceptably low CBR of ≤10% in favor of the alternative hypothesis that indicated the higher rate, ≥30%, was more likely, would be declared if at least 9/44 subjects achieved CB at week 24 in that arm.
# These patients on the study had measurable disease at baseline and an AR staining prior to entry into the study. The radiographic imaging in this patient population was done every 12 weeks (2.7 months). Therefore, the minimum radiographic progression free survival (rPFS) that could be determined is approximately 2.7 months. 90% of the patients in the study had previously received non-endocrine based chemotherapy. The patients in this study had failed an average of 2 prior treatment lines for metastatic disease (range=0-5). FIG. 43 provides a scatterplot for the patients in this study with regard to the correlation between % AR-positive staining at baseline (% AR staining) and rPFS. […] However, in patients with greater than or equal to 40% AR-positive staining, the rPFS was delayed to variable extents (scatter plot pattern) in many to most cases. A positive correlation between rPFS and % AR staining was seen above the threshold of 40% AR staining. To explore this positive correlation further, several subgroups of AR % staining were defined and analyzed for metrics of efficacy, as shown in Table 14.
structure (smiles),measurement,setting,value
"C[C@](O)(COc1ccc(C#N)cc1)C(=O)Nc1ccc(C#N)c(C(F)(F)F)c1 [Formula IX, (S)—N-(4-Cyano-3-(trifluoromethyl)phenyl)-3-(4-cyanophenoxy)-2-hydroxy-2-methylpropanamide]",AR-positive patients with clinical benefit at 6 months (primary endpoint),[1]; 9 mg daily,6/17
same,CR or PR,[1]; 9 mg daily,no CR or PR has been observed
same,median duration of SD as best response,[1]; 9 mg daily,212 days
same,patients with PSA increase,[1]; 9 mg daily,20 of the 22
same,tolerability,[1]; 9 mg daily,well-tolerated
same,subjects with clinical benefit (SD) at 6 months,"[1]; 9 mg once daily, all subjects",Seven out of twenty-two
same,tolerability,"[1]; 9 mg, no virilization, hematocrit increase or liver toxicity",well tolerated
same,A-fib,"[1]; AE count, 9 mg daily",1
same,anxiety/emotional changes,"[1]; AE count, 9 mg daily",5
same,arthralgia,"[1]; AE count, 9 mg daily",6
same,bloating,"[1]; AE count, 9 mg daily",2
same,bruising,"[1]; AE count, 9 mg daily",1
same,cellulitis,"[1]; AE count, 9 mg daily",1
same,chills,"[1]; AE count, 9 mg daily",1
same,constipation,"[1]; AE count, 9 mg daily",2
same,cough,"[1]; AE count, 9 mg daily",1
same,dehydration,"[1]; AE count, 9 mg daily",1
same,diarrhea,"[1]; AE count, 9 mg daily",3
same,dizziness,"[1]; AE count, 9 mg daily",2
same,dysgeusia,"[1]; AE count, 9 mg daily",1
same,dyspepsia,"[1]; AE count, 9 mg daily",1
same,dyspnea,"[1]; AE count, 9 mg daily",3
same,edema,"[1]; AE count, 9 mg daily",2
same,fatigue,"[1]; AE count, 9 mg daily",14
same,fever,"[1]; AE count, 9 mg daily",1
same,flatulence,"[1]; AE count, 9 mg daily",1
same,glaucoma,"[1]; AE count, 9 mg daily",1
same,headache,"[1]; AE count, 9 mg daily",4
same,hot flash night sweats,"[1]; AE count, 9 mg daily",7
same,hypertension,"[1]; AE count, 9 mg daily",2
same,infection,"[1]; AE count, 9 mg daily",1
same,insomnia,"[1]; AE count, 9 mg daily",2
same,myalgia,"[1]; AE count, 9 mg daily",5
same,nail discoloration,"[1]; AE count, 9 mg daily",1
same,nausea,"[1]; AE count, 9 mg daily",11
same,pain,"[1]; AE count, 9 mg daily",22
same,paresthesia,"[1]; AE count, 9 mg daily",1
same,pleural effusion,"[1]; AE count, 9 mg daily",1
same,polyuria,"[1]; AE count, 9 mg daily",1
same,post menopausal bleeding,"[1]; AE count, 9 mg daily",3
same,stiffness,"[1]; AE count, 9 mg daily",1
same,tendonitis,"[1]; AE count, 9 mg daily",1
same,vision changes,"[1]; AE count, 9 mg daily",3
same,vomiting,"[1]; AE count, 9 mg daily",2
same,weight gain,"[1]; AE count, 9 mg daily",2
same,weight loss,"[1]; AE count, 9 mg daily",2
same,subjects with CB as best response,[1]; all subjects (9/22),41%
same,Current Disposition,[1]; individual patients,D/C (2×) and Deceased (4×)
same,Days on Study,[1]; individual patients,255 Days and 105 Days and 7 Days and 18 Days and 158 Days and 308 Days and 52 Days and 63 Days and 230 Days and 84 Days (3×) and 252 Days and 28 Days and 239 Days and 86 Days and 202 Days and 190 Days and 99 Days and 137 Days and 100 Days and 91 Days
same,Day 84 RECIST,"[1]; individual patients, 9 mg daily",D/C SAE and PD SAE and D/C
same,tumor regression,[1]; one subject with SD,27%
same,responders with duration of response ≥6 months,[2]; 9 mg,67%
same,responders with duration of response ≥12 months,[2]; 9 mg,25%
same,Quality of life assessments,"[2]; 9 mg and 18 mg cohorts, p=0.002",significant improvement from baseline
same,tolerability,[2]; 9 mg and 18 mg doses,well tolerated
same,patients with complete response,"[2]; 9 mg arm, 3 patients who failed palbociclib",33%
same,Median duration of clinical benefit,[2]; 9 mg group,not reached
same,rPFS,"[2]; 9 mg, AR nuclei staining <40%",2.72 months
same,ORR,"[2]; 9 mg, AR nuclei staining <40% (0/22)",0%
same,rPFS,"[2]; 9 mg, AR nuclei staining ≥40%",5.47 months
same,ORR,"[2]; 9 mg, AR nuclei staining ≥40% (12/25)",48%
same,"Best overall objective tumor response, CR (patients)",[2]; 9 mg,3
same,"Best overall objective tumor response, PR (patients)",[2]; 9 mg,8
same,median duration of response,"[2]; 9 mg, patients with objective tumor response, range 2.73 to >27.83",8.18 months
same,response rate,"[2]; 18 mg arm, 6 patients who failed palbociclib",33%
same,Median duration of clinical benefit,[2]; 18 mg group (11 months-16.5 months),14.1 months
same,"Best overall objective tumor response, CR (patients)",[2]; 18 mg,1
same,"Best overall objective tumor response, PR (patients)",[2]; 18 mg,5
same,objective response in ≥60% AR subgroup,"[2]; progressed on estrogen blocking agents and CDK 4/6 inhibitor, 4 patients",75%
same,patients with an objective response,"[2]; progressed on estrogen blocking agents and CDK 4/6 inhibitor, AR ≥40% (7 patients)",3 patients
